From patent US20220106271A1, “2-BROMO-6-ALKOXYPHENYL-SUBSTITUTED PYRROLIN-2-ONES AND THEIR USE AS HERBICIDES” (Bayer Aktiengesellschaft, priority 2018, published 2022)

Columns and labels:
Type in all cases: in vivo
[1] = tested on: Polygonum convolvulus; assay: Pre-emergence herbicidal effect, greenhouse pot test; details: scored visually after 3 weeks, dosage 320 g/ha printed only in the upper half of Table 2
Description: (§1) 1. Pre-emergence herbicidal effect and crop plant compatibility Seeds of monocotyledonous and dicotyledonous weed plants and crop plants are laid out in sandy loam soil in wood-fibre pots and covered with soil. The compounds of the invention, formulated in the form of wettable powders (WP) or as emulsion concentrates (EC), are then applied to the surface of the covering soil as aqueous suspension or emulsion at a water application rate equating to 600 to 800 L/ha with addition of 0.2% wetting agent.
(§2) After the treatment, the pots are placed in a greenhouse and kept under good growth conditions for the trial plants. The damage to the test plants is scored visually after a test period of 3 weeks by comparison with untreated controls (herbicidal activity in percent (%): 100% activity=the plants have died, 0% activity=like control plants).

[2] = tested on: Alopecurus myosuroides; assay: as above; details: 320 g/ha, scored visually after 3 weeks, 100% = plants have died, 0% = like control plants
Description: as §1, §2

[3] = tested on: Stellaria media; assay: as above; details: scored visually after 3 weeks, dosage 320 g/ha printed only in the upper half of Table 2
Description: as §1, §2

[4] = tested on: Amaranthus retroflexus; assay: as above; details: scored visually after 3 weeks, dosage 320 g/ha printed only in the upper half of Table 2
Description: as §1, §2

[5] = tested on: Setaria viridis; assay: as above; details: 320 g/ha, scored visually after 3 weeks, 100% = plants have died, 0% = like control plants
Description: as §1, §2

[6] = tested on: Viola tricolor; assay: as above; details: scored visually after 3 weeks, dosage 320 g/ha printed only in the upper half of Table 2
Description: as §1, §2

[7] = tested on: Abutylon threophrasti; assay: as above; details: scored visually after 3 weeks, dosage 320 g/ha printed only in the upper half of Table 2
Description: as §1, §2

[8] = tested on: Lolium rigidum; assay: as above; details: 320 g/ha, scored visually after 3 weeks, 100% = plants have died, 0% = like control plants
Description: as §1, §2

[9] = tested on: Veronica persica; assay: as above; details: scored visually after 3 weeks, dosage 320 g/ha printed only in the upper half of Table 2
Description: as §1, §2

[10] = tested on: Hordeum murinum; assay: as above; details: scored visually after 3 weeks, dosage 320 g/ha printed only in the upper half of Table 2
Description: as §1, §2

[11] = tested on: Echinochloa crus-galli; assay: as above; details: 320 g/ha, scored visually after 3 weeks, 100% = plants have died, 0% = like control plants
Description: as §1, §2

[12] = tested on: Cyperus esculentus; assay: as above; details: 320 g/ha, scored visually after 3 weeks, 100% = plants have died, 0% = like control plants
Description: as §1, §2

[13] = tested on: Alopecurus myosuroides; assay: Post-emergence herbicidal effect, greenhouse pot test; details: 80 g/ha, post-emergence at one-leaf stage, assessed visually after about 3 weeks; 100% = plants have died, 0% = like control plants
Protocol: (§3) Seeds of monocotyledonous and dicotyledonous weed and crop plants are laid out in sandy loam soil in wood-fibre pots, covered with soil and cultivated in a greenhouse under good growth conditions. 2 to 3 weeks after sowing, the test plants are treated at the one-leaf stage. The compounds of the invention, formulated in the form of wettable powders (WP) or as emulsion concentrates (EC), are then sprayed onto the green parts of the plants as aqueous suspension or emulsion at a water application rate equating to 600 to 800 L/ha with addition of 0.2% wetting agent. After the test plants have been left to stand in the greenhouse under optimal growth conditions for about 3 weeks, the action of the preparations is assessed visually in comparison to untreated controls (herbicidal action in percent (%): 100% activity=the plants have died, 0% activity=like control plants).

[14] = tested on: Setaria viridis; assay: as above; details: 80 g/ha, post-emergence at one-leaf stage, assessed visually after about 3 weeks; 100% = plants have died, 0% = like control plants
Protocol: as §3

[15] = tested on: Lolium rigidum; assay: as above; details: 80 g/ha, post-emergence at one-leaf stage, assessed visually after about 3 weeks; 100% = plants have died, 0% = like control plants
Protocol: as §3

[16] = tested on: Avena fatua; assay: as above; details: 80 g/ha, post-emergence at one-leaf stage, assessed visually after about 3 weeks; 100% = plants have died, 0% = like control plants
Protocol: as §3

[17] = tested on: Hordeum murinum; assay: as above; details: 80 g/ha, post-emergence at one-leaf stage, assessed visually after about 3 weeks; 100% = plants have died, 0% = like control plants
Protocol: as §3

[18] = tested on: Echinochloa crus-galli; assay: as above; details: 80 g/ha, post-emergence at one-leaf stage, assessed visually after about 3 weeks; 100% = plants have died, 0% = like control plants
Protocol: as §3

[19] = tested on: Avena fatua; assay: Pre-emergence herbicidal effect, greenhouse pot test; details: 320 g/ha, scored visually after 3 weeks, 100% = plants have died, 0% = like control plants
Description: as §1, §2

Compound	Pre-emergence action POLCO (herbicidal activity in percent) [1] [%]	Pre-emergence action ALOMY (herbicidal activity in percent) [2] [%]	Pre-emergence action STEME (herbicidal activity in percent) [3] [%]	Pre-emergence action AMARE (herbicidal activity in percent) [4] [%]	Pre-emergence action SETVI (herbicidal activity in percent) [5] [%]	Pre-emergence action VIOTR (herbicidal activity in percent) [6] [%]	Pre-emergence action ABUTH (herbicidal activity in percent) [7] [%]	Pre-emergence action LOLRI (herbicidal activity in percent) [8] [%]	Pre-emergence action VERPE (herbicidal activity in percent) [9] [%]	Pre-emergence action HORMU (herbicidal activity in percent) [10] [%]	Pre-emergence action ECHCG (herbicidal activity in percent) [11] [%]	Pre-emergence action CYPES (herbicidal activity in percent) [12] [%]	Post-emergence action ALOMY (herbicidal action in percent) [13] [%]	Post-emergence action SETVI (herbicidal action in percent) [14] [%]	Post-emergence action LOLRI (herbicidal action in percent) [15] [%]	Post-emergence action AVEFA (herbicidal action in percent) [16] [%]	Post-emergence action HORMU (herbicidal action in percent) [17] [%]	Post-emergence action ECHCG (herbicidal action in percent) [18] [%]	Pre-emergence action AVEFA (herbicidal activity in percent) [19] [%]
CC#Cc1cc(Br)c(C2=C(O)C3(CCC(OC)CC3)NC2=O)c(OC)c1 (single isomer, unassigned) [Example 1.1, 3-[2-Bromo-6-methoxy-4-(prop-1-yn-1-yl)phenyl]-4-hydroxy-8-methoxy-1-azaspiro[4.5]dec-3-en-2-one]	100	100	100	100	100	100	100	100	100	100	100	100	90	90	100	100	100	100	–
CC#Cc1cc(Br)c(C2=C(O)C3(CCC(OC)CC3)NC2=O)c(OC)c1 (single isomer, unassigned) [Example 1.2]	100	100	100	100	100	100	100	100	100	100	100	100	90	90	90	90	100	100	100
CC#Cc1cc(Br)c(C2=C(OC(=O)OCC)C3(CCC(OC)CC3)NC2=O)c(OC)c1 (stereo not drawn) [Example 1.3, 3-[2-Bromo-6-methoxy-4-(prop-1-yn-1-yl)phenyl]-8-methoxy-2-oxo-1-azaspiro[4.5]dec-3-en-4-yl ethyl carbonate]	100	100	100	100	100	100	100	100	100	100	100	100	90	90	100	90	100	100	100
CC#Cc1cc(Br)c(C2=C(OC(=O)C(C)C)C3(CCC(OC)CC3)NC2=O)c(OC)c1 (stereo not drawn) [Example 1.4]	100	100	100	100	100	100	100	100	100	100	100	100	90	90	100	90	100	90	100
